Source: PMC3764405, “Synthesis and evaluation of a ^125I-labeled iminodihydroquinoline-derived tracer for imaging of voltage-gated sodium channels^” (Bioorganic & Medicinal Chemistry Letters, 2013)

Target: T1, human Nav1.2 isoform (hNav1.2) (Homo sapiens, UniProt Q99250)
T1 construct: gene SCN2A
Experiment: automated patch clamp, CHO cells transfected with hNav1.[…]
Format: cell-based

T1 sequence (Q99250 whole entry, canonical isoform): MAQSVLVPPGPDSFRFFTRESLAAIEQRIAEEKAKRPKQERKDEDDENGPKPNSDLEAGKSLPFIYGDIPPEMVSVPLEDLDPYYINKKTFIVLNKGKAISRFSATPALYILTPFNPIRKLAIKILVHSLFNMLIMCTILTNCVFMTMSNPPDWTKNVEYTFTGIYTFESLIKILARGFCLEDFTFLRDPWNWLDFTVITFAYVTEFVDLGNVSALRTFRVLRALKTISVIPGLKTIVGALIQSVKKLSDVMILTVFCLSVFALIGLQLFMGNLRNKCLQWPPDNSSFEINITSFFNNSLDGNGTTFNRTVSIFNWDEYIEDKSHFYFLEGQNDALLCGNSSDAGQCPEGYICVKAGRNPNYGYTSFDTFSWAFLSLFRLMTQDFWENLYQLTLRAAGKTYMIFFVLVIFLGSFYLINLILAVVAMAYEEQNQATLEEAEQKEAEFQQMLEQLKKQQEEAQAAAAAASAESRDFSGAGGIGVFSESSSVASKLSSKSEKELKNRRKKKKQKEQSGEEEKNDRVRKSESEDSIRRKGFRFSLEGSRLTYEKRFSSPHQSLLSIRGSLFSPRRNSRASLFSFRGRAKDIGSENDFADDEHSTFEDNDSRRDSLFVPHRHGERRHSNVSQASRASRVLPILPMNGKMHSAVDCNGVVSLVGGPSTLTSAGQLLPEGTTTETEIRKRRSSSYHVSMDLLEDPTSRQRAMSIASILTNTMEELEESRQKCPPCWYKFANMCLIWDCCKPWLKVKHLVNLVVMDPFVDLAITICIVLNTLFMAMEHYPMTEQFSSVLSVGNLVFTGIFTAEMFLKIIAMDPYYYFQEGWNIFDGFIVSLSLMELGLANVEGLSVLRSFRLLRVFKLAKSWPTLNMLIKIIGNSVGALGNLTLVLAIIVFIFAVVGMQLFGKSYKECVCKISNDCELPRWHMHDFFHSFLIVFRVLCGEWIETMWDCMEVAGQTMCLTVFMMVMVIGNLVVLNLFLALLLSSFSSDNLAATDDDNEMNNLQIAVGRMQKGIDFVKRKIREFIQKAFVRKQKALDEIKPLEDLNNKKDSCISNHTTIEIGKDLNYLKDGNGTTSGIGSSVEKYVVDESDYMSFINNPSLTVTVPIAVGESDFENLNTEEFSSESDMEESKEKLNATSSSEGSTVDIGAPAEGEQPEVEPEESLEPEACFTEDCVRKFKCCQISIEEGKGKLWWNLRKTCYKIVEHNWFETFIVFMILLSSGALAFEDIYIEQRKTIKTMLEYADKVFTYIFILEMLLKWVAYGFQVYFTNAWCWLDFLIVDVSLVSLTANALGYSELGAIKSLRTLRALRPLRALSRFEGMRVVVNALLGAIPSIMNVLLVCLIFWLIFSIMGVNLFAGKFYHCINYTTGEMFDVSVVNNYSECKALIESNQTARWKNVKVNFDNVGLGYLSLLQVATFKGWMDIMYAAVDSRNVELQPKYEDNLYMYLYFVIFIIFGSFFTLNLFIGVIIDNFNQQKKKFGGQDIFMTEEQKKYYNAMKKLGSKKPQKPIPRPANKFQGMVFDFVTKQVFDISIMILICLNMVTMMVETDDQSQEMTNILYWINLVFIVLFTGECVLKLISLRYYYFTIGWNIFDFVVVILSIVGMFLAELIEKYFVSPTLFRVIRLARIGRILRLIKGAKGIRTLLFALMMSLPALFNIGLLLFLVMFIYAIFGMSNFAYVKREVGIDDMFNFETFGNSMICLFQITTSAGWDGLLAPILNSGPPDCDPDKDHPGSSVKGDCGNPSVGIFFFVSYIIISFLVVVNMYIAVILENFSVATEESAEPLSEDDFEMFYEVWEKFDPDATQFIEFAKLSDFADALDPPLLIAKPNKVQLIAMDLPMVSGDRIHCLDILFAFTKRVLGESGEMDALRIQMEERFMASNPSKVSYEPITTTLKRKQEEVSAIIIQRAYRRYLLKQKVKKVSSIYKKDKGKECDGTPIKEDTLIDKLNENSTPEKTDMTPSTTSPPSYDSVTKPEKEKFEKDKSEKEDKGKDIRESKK

Row | SMILES | IC50 [µM]
1 | CCCCCN=c1ccn(Cc2ccccc2)c2cc(Cl)ccc12 [WIN17317-3] | 2.2 ± 1.2
2 | CCCCCN=c1ccn(Cc2ccccc2)c2cc(I)ccc12 [compound 10, 10] | 1.5 ± 0.5
